Tests used:
barnyard grass [1] = assay: Test Example 3: herbicidal effect by foliage application, Wagner pot (Table 18, symbol H); format: in vivo, barnyard grass (Echinochloa crus-galli); settings: 320 g/ha
How it was run: (§1)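 Plants were sown in alluvial soil held under 0.1–0.5 cm standing water and grown 14 days in a greenhouse at 25–30 °C. An emulsifiable formulation, water-diluted to the set dose, was then sprayed onto the foliage, and effects were scored three weeks later using previously defined criteria.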

Chinese sprangletop = assay: Test Example 3: herbicidal effect by foliage application, Wagner pot (Table 18, symbol D); format: in vivo, chinese sprangletop (Leptochloa chinensis); settings: 320 g/ha
How it was run: as §1

rice flat sedge = assay: Test Example 3: herbicidal effect by foliage application, Wagner pot (Table 18, symbol E); format: in vivo, rice flat sedge (Cyperus iria); settings: 320 g/ha
How it was run: as §1

southern crabgrass [2] = assay: Test Example 4: herbicidal effect by soil treatment (Table 19, symbol F); format: in vivo, southern crabgrass (Digitaria ciliaris); settings: amount of applied herbicide 320 g/ha
How it was run: (§2)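 Emulsion of test compound, water-diluted to predetermined amount, sprayed on soil after sowing (seed depth ~1.5 cm, sterilized diluvial soil). Greenhouse, 25–30° C. Effect graded at three weeks post-spray.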

green foxtail [3] = assay: Test Example 4: herbicidal effect by soil treatment (Table 19, symbol G); format: in vivo, green foxtail (Setaria viridis); settings: amount of applied herbicide 320 g/ha
How it was run: as §2

barnyard grass [4] = assay: Test Example 4: herbicidal effect by soil treatment (Table 19, symbol H); format: in vivo, barnyard grass (Echinochloa crus-galli); settings: amount of applied herbicide 320 g/ha
How it was run: as §2

wild oat [5] = assay: Test Example 4: herbicidal effect by soil treatment (Table 19, symbol I); format: in vivo, wild oat (Avena fatua); settings: amount of applied herbicide 320 g/ha
How it was run: as §2

blackgrass [6] = assay: Test Example 4: herbicidal effect by soil treatment (Table 19, symbol J); format: in vivo, blackgrass (Alopecurus myosuroides); settings: amount of applied herbicide 320 g/ha
How it was run: as §2

Italian ryegrass [7] = assay: Test Example 4: herbicidal effect by soil treatment (Table 19, symbol K); format: in vivo, Italian ryegrass (Lolium multiflorum); settings: amount of applied herbicide 320 g/ha
How it was run: as §2

windgrass [8] = assay: Test Example 4: herbicidal effect by soil treatment (Table 19, symbol L); format: in vivo, windgrass (Apera spica-venti); settings: amount of applied herbicide 320 g/ha
How it was run: as §2

velvetleaf [9] = assay: Test Example 4: herbicidal effect by soil treatment (Table 19, symbol M); format: in vivo, velvetleaf (Abutilon theophrasti); settings: amount of applied herbicide 320 g/ha
How it was run: as §2

redroot pigweed [10] = assay: Test Example 4: herbicidal effect by soil treatment (Table 19, symbol N); format: in vivo, redroot pigweed (Amaranthus retroflexus); settings: amount of applied herbicide 320 g/ha
How it was run: as §2

lambsquarters [11] = assay: Test Example 4: herbicidal effect by soil treatment (Table 19, symbol O); format: in vivo, lambsquarters (Chenopodium album); settings: amount of applied herbicide 320 g/ha
How it was run: as §2

chickweed [12] = assay: Test Example 4: herbicidal effect by soil treatment (Table 19, symbol P); format: in vivo, common chickweed (Stellaria media); settings: amount of applied herbicide 320 g/ha
How it was run: as §2

persian speedwell [13] = assay: Test Example 4: herbicidal effect by soil treatment (Table 19, symbol R); format: in vivo, Persian speedwell (Veronica persica); settings: amount of applied herbicide 320 g/ha
How it was run: as §2

southern crabgrass [14] = assay: Test Example 5: herbicidal effect by foliage application, plastic box (Table 20, symbol F); format: in vivo, southern crabgrass (Digitaria ciliaris); settings: amount of applied herbicide 320 g/ha; foliage application after 14-day growth; evaluated three weeks after application
How it was run: (§3)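 Post-emergence foliar test in sterilized diluvial soil. Compound applied as water-diluted emulsion at a predetermined rate to 14-day-old plants; evaluation at three weeks.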

green foxtail [15] = assay: Test Example 5: herbicidal effect by foliage application, plastic box (Table 20, symbol G); format: in vivo, green foxtail (Setaria viridis); settings: amount of applied herbicide 320 g/ha; foliage application after 14-day growth; evaluated three weeks after application
How it was run: as §3

barnyard grass [16] = assay: Test Example 5: herbicidal effect by foliage application, plastic box (Table 20, symbol H); format: in vivo, barnyard grass (Echinochloa crus-galli); settings: amount of applied herbicide 320 g/ha; foliage application after 14-day growth; evaluated three weeks after application
How it was run: as §3

wild oat [17] = assay: Test Example 5: herbicidal effect by foliage application, plastic box (Table 20, symbol I); format: in vivo, wild oat (Avena fatua); settings: amount of applied herbicide 320 g/ha; foliage application after 14-day growth; evaluated three weeks after application
How it was run: as §3

blackgrass [18] = assay: Test Example 5: herbicidal effect by foliage application, plastic box (Table 20, symbol J); format: in vivo, blackgrass (Alopecurus myosuroides); settings: amount of applied herbicide 320 g/ha; foliage application after 14-day growth; evaluated three weeks after application
How it was run: as §3

Italian ryegrass [19] = assay: Test Example 5: herbicidal effect by foliage application, plastic box (Table 20, symbol K); format: in vivo, Italian ryegrass (Lolium multiflorum); settings: amount of applied herbicide 320 g/ha; foliage application after 14-day growth; evaluated three weeks after application
How it was run: as §3

windgrass [20] = assay: Test Example 5: herbicidal effect by foliage application, plastic box (Table 20, symbol L); format: in vivo, windgrass (Apera spica-venti); settings: amount of applied herbicide 320 g/ha; foliage application after 14-day growth; evaluated three weeks after application
How it was run: as §3

velvetleaf [21] = assay: Test Example 5: herbicidal effect by foliage application, plastic box (Table 20, symbol M); format: in vivo, velvetleaf (Abutilon theophrasti); settings: amount of applied herbicide 320 g/ha; foliage application after 14-day growth; evaluated three weeks after application
How it was run: as §3

redroot pigweed [22] = assay: Test Example 5: herbicidal effect by foliage application, plastic box (Table 20, symbol N); format: in vivo, redroot pigweed (Amaranthus retroflexus); settings: amount of applied herbicide 320 g/ha; foliage application after 14-day growth; evaluated three weeks after application
How it was run: as §3

lambsquarters [23] = assay: Test Example 5: herbicidal effect by foliage application, plastic box (Table 20, symbol O); format: in vivo, lambsquarters (Chenopodium album); settings: amount of applied herbicide 320 g/ha; foliage application after 14-day growth; evaluated three weeks after application
How it was run: as §3

chickweed [24] = assay: Test Example 5: herbicidal effect by foliage application, plastic box (Table 20, symbol P); format: in vivo, common chickweed (Stellaria media); settings: amount of applied herbicide 320 g/ha; foliage application after 14-day growth; evaluated three weeks after application
How it was run: as §3

persian speedwell [25] = assay: Test Example 5: herbicidal effect by foliage application, plastic box (Table 20, symbol R); format: in vivo, Persian speedwell (Veronica persica); settings: amount of applied herbicide 320 g/ha; foliage application after 14-day growth; evaluated three weeks after application
How it was run: as §3

SMILES: Cc1nn(C)c(=O)c(-c2c(-c3ccc(Br)cc3)sc3c(C)cccc23)c1O [4-104]
- herbicidal effect on barnyard grass (H) (barnyard grass [1]): 2 (Herbicidal rate of 20% or more and less than 40%)
- herbicidal effect on Chinese sprangletop (D) (Chinese sprangletop): 0 (Herbicidal rate of 5% or less (almost no effect))
- herbicidal effect on rice flat sedge (E) (rice flat sedge): 0 (Herbicidal rate of 5% or less (almost no effect))
- Herbicidal effect by soil treatment, F: southern crabgrass (southern crabgrass [2]): 0 (Herbicidal rate of 5% or less (almost no effect))
- Herbicidal effect by soil treatment, G: green foxtail (green foxtail [3]): 0 (Herbicidal rate of 5% or less (almost no effect))
- Herbicidal effect by soil treatment, H: barnyard grass (barnyard grass [4]): 0 (Herbicidal rate of 5% or less (almost no effect))
- Herbicidal effect by soil treatment, I: wild oat (wild oat [5]): 0 (Herbicidal rate of 5% or less (almost no effect))
- Herbicidal effect by soil treatment, J: blackgrass (blackgrass [6]): 0 (Herbicidal rate of 5% or less (almost no effect))
- Herbicidal effect by soil treatment, K: Italian ryegrass (Italian ryegrass [7]): 0 (Herbicidal rate of 5% or less (almost no effect))
- Herbicidal effect by soil treatment, L: windgrass (windgrass [8]): 0 (Herbicidal rate of 5% or less (almost no effect))
- Herbicidal effect by soil treatment, M: velvetleaf (velvetleaf [9]): 2 (Herbicidal rate of 20% or more and less than 40%)
- Herbicidal effect by soil treatment, N: redroot pigweed (redroot pigweed [10]): 4 (Herbicidal rate of 70% or more and less than 90%)
- Herbicidal effect by soil treatment, O: lambsquarters (lambsquarters [11]): 1 (Herbicidal rate of 5% or more and less than 20%)
- Herbicidal effect by soil treatment, P: chickweed (chickweed [12]): 3 (Herbicidal rate of 40% or more and less than 70%)
- Herbicidal effect by soil treatment, R: persian speedwell (persian speedwell [13]): 3 (Herbicidal rate of 40% or more and less than 70%)
- Herbicidal effect by foliage application, F: southern crabgrass (southern crabgrass [14]): 0 (Herbicidal rate of 5% or less (almost no effect))
- Herbicidal effect by foliage application, G: green foxtail (green foxtail [15]): 0 (Herbicidal rate of 5% or less (almost no effect))
- Herbicidal effect by foliage application, H: barnyard grass (barnyard grass [16]): 0 (Herbicidal rate of 5% or less (almost no effect))
- Herbicidal effect by foliage application, I: wild oat (wild oat [17]): 0 (Herbicidal rate of 5% or less (almost no effect))
- Herbicidal effect by foliage application, J: blackgrass (blackgrass [18]): 0 (Herbicidal rate of 5% or less (almost no effect))
- Herbicidal effect by foliage application, K: Italian ryegrass (Italian ryegrass [19]): 4 (Herbicidal rate of 70% or more and less than 90%)
- Herbicidal effect by foliage application, L: windgrass (windgrass [20]): 3 (Herbicidal rate of 40% or more and less than 70%)
- Herbicidal effect by foliage application, M: velvetleaf (velvetleaf [21]): 5 (Herbicidal rate of 90% or more (almost completely withered))
- Herbicidal effect by foliage application, N: redroot pigweed (redroot pigweed [22]): 5 (Herbicidal rate of 90% or more (almost completely withered))
- Herbicidal effect by foliage application, O: lambsquarters (lambsquarters [23]): 4 (Herbicidal rate of 70% or more and less than 90%)
- Herbicidal effect by foliage application, P: chickweed (chickweed [24]): 5 (Herbicidal rate of 90% or more (almost completely withered))
- Herbicidal effect by foliage application, R: persian speedwell (persian speedwell [25]): 5 (Herbicidal rate of 90% or more (almost completely withered))

SMILES: Cc1nn(C)c(=O)c(-c2c(-c3ccc4c(c3)OCO4)sc3cc(F)c(F)cc23)c1O [5-035]
- herbicidal effect on barnyard grass (H) (barnyard grass [1]): 4 (Herbicidal rate of 70% or more and less than 90%)
- herbicidal effect on Chinese sprangletop (D) (Chinese sprangletop): 3 (Herbicidal rate of 40% or more and less than 70%)
- herbicidal effect on rice flat sedge (E) (rice flat sedge): 3 (Herbicidal rate of 40% or more and less than 70%)
- F: southern crabgrass, herbicidal effect grade (southern crabgrass [2]): 1 (Herbicidal rate of 5% or more and less than 20%)
- G: green foxtail, herbicidal effect grade (green foxtail [3]): 2 (Herbicidal rate of 20% or more and less than 40%)
- H: barnyard grass, herbicidal effect grade (barnyard grass [4]): 3 (Herbicidal rate of 40% or more and less than 70%)
- I: wild oat, herbicidal effect grade (wild oat [5]): 0 (Herbicidal rate of 5% or less (almost no effect))
- J: blackgrass, herbicidal effect grade (blackgrass [6]): 0 (Herbicidal rate of 5% or less (almost no effect))
- K: Italian ryegrass, herbicidal effect grade (Italian ryegrass [7]): 0 (Herbicidal rate of 5% or less (almost no effect))
- L: windgrass, herbicidal effect grade (windgrass [8]): 0 (Herbicidal rate of 5% or less (almost no effect))
- M: velvetleaf, herbicidal effect grade (velvetleaf [9]): 0 (Herbicidal rate of 5% or less (almost no effect))
- N: redroot pigweed, herbicidal effect grade (redroot pigweed [10]): 1 (Herbicidal rate of 5% or more and less than 20%)
- O: lambsquarters, herbicidal effect grade (lambsquarters [11]): 3 (Herbicidal rate of 40% or more and less than 70%)
- P: chickweed, herbicidal effect grade (chickweed [12]): 1 (Herbicidal rate of 5% or more and less than 20%)
- R: persian speedwell, herbicidal effect grade (persian speedwell [13]): 5 (Herbicidal rate of 90% or more (almost completely withered))
- Herbicidal effect by foliage application, F: southern crabgrass (southern crabgrass [14]): 1 (Herbicidal rate of 5% or more and less than 20%)
- Herbicidal effect by foliage application, G: green foxtail (green foxtail [15]): 0 (Herbicidal rate of 5% or less (almost no effect))
- Herbicidal effect by foliage application, H: barnyard grass (barnyard grass [16]): 2 (Herbicidal rate of 20% or more and less than 40%)
- Herbicidal effect by foliage application, I: wild oat (wild oat [17]): 0 (Herbicidal rate of 5% or less (almost no effect))
- Herbicidal effect by foliage application, J: blackgrass (blackgrass [18]): 0 (Herbicidal rate of 5% or less (almost no effect))
- Herbicidal effect by foliage application, K: Italian ryegrass (Italian ryegrass [19]): 0 (Herbicidal rate of 5% or less (almost no effect))
- Herbicidal effect by foliage application, L: windgrass (windgrass [20]): 5 (Herbicidal rate of 90% or more (almost completely withered))
- Herbicidal effect by foliage application, M: velvetleaf (velvetleaf [21]): 5 (Herbicidal rate of 90% or more (almost completely withered))
- Herbicidal effect by foliage application, N: redroot pigweed (redroot pigweed [22]): 5 (Herbicidal rate of 90% or more (almost completely withered))
- Herbicidal effect by foliage application, O: lambsquarters (lambsquarters [23]): 5 (Herbicidal rate of 90% or more (almost completely withered))
- Herbicidal effect by foliage application, P: chickweed (chickweed [24]): 5 (Herbicidal rate of 90% or more (almost completely withered))
- Herbicidal effect by foliage application, R: persian speedwell (persian speedwell [25]): 5 (Herbicidal rate of 90% or more (almost completely withered))
